Experimental data taken from PubChem BioAssay AID2305 (GlaxoSmithKline (GSK), 2010).

Test system: P. falciparum 3D7 growth, pLDH absorbance
Experiment: P. falciparum 3D7 growth inhibition, dose response, strain 3D7 (AID 2305)

SMILES	IC50 [nM]
COc1cccc(C2C(C(=O)Nc3ccccc3)=C(C)N=c3s/c(=C\c4ccc(O)cc4)c(=O)n32)c1 (stereo unspecified)	580
CCN(CC)CCN(Cc1ccc(-c2ccc(C(F)(F)F)cc2)cc1)C(=O)Cn1c(CCc2ccc(F)c(F)c2F)nc(=O)c2ccccc21	790
Cc1ccc(C)c2sc(N(CCCn3ccnc3)C(=O)C=Cc3cccs3)nc12	1060
O=C(/C=C/c1ccc(F)cc1)NC1CCC(CCN2CCc3ccccc3CC2)CC1 (stereo unspecified)	1400
CCCCCCN1CCCN(Cc2ccc(C(=O)Nc3ccc(CCC)cc3)cc2)CC1	660
CCCCCCCSc1ccc(CC(C)NCC(O)c2cccc(Cl)c2)cc1 (stereo unspecified)	180
COc1ccc2nccc([C@@H](O)CN3CCC(NCCOc4cc(F)cc(F)c4)CC3)c2c1	160
O=C(Nc1ccc(Cn2ncc(N3CCNCC3)c(Cl)c2=O)cc1)Nc1ccc(-c2ccccc2)cc1	590
Clc1cc2c(Nc3ccc(Oc4ccccc4)cc3)ccnc2cc1-c1ccc(CNCCN2CCOCC2)o1	710
NCC1CCCN1Cc1ccc(-c2ccc(-c3nc4ccc(C(F)(F)F)cc4[nH]3)s2)cc1 (stereo unspecified)	790
CCCCCC(C)C(C)c1cc(O)c2c(c1)OC(C)(C)c1cnccc1-2 (stereo unspecified)	770
Cc1cc(N[C@@H](Cc2ccccc2)C(=O)NCc2cccs2)nc(NCCc2ccc(F)cc2)n1	850
COc1cc2nc(NCCn3ccnc3C)nc(NCCc3ccccc3)c2cc1OC	730
O=C(NCC1CC1)C1CCN(C(c2ccc(Cl)cc2)c2ccc(Cl)cc2)CC1	190
Nc1c2c(nc3ccc(NC(=O)Cc4ccccc4)cc13)CCCC2	760
CCCCc1ccc(NC(=O)Nc2cccc(CCNCc3ccccc3)c2)cc1	880
COc1ccc(NC(=O)Nc2cccc(-c3cccc(-c4nc5c(C)cccc5[nH]4)c3)c2)cc1	400
O=C(NCCCCCN1CCCN(C(=O)Nc2ccc(F)c(C(F)(F)F)c2)CC1)[C@@H]1C[C@H]1c1ccc(Cl)c(Cl)c1	1030
CCOc1ccc(C(C)NC(=O)Cc2ccccc2F)cc1OCC (stereo unspecified)	840
Cc1cc(N(C)C)nc(Nc2ccc(NC(=O)CCc3ccccc3)cc2)n1	850
CCCCCNc1nc2nc(N)nc(N)c2nc1-c1ccccc1	950
c1cncc(CCNCc2ccc(-c3ccc(-c4nc5ccccc5[nH]4)s3)cc2)c1	210
CCc1cccc(-n2nc(OCC(=O)NC3CCCC3)c3cccnc32)c1	930
COC(=O)c1ccccc1COc1ccc(CC2(NC(=O)[C@H](Nc3ccc(C#N)c4ccccc34)C(C)(C)C)CCCC2)cc1	860
CCc1ccc(O)c(-c2cc(C(=O)Nc3cccnc3)[nH]n2)c1	690
CCCc1cc(C)ccc1OCCCON1C(NC(=O)OCC)=NC(NC(=O)OCC)=NC1(C)C	40

SMILES	IC50 [nM]
Cc1ccc(Nc2nccc(Nc3ccc4c(c3)nc(Nc3cc(C(C)(C)C)on3)n4C)n2)cc1S(C)(=O)=O	600
Oc1ccc(CC2CCCN(c3nc(NCCCOc4ccccc4-c4ccccc4)nc(N4CCNCC4)n3)C2)cc1 (stereo unspecified)	920
CCN(CC)CCN(Cc1ccc(-c2ccc(C(F)(F)F)cc2)cc1)C(=O)Cn1c(CCc2cccc(F)c2F)cc(=O)c(C)c1C	620
CCc1c(CCNCCCCCCNCCc2ccc(OC)cc2)ccc(OC)c1OC	870
COc1cc(C)ccc1N1CCN(CCCCNC(=O)c2ccc(NC(=O)c3ccc(Cl)cc3)cc2)CC1	700
CCN(CCN(C)C)Cc1ccc(-c2ccc(NS(=O)(=O)c3cccc(Cl)c3)cc2)cc1	520
CCn1c(O)c(N=NC(=S)N2CCCC2)c2ccccc21	1000
CCOC(=O)CCCc1cc(NC2CCN(C)CC2)nc(Nc2ccc(OC)cc2)n1	700
Cc1c(F)cc(C(=O)NC2CC2)cc1-c1ccc2c(cnn2S(=O)(=O)c2ccc(Cl)s2)c1	390
N#Cc1ccc2[nH]cc(-c3cn4cc(SC5CCCC5)ccc4n3)c2c1	940
CN(C(=O)c1snnc1-c1ccccc1)C1CCN(CCCCCNC(=O)/C=C/c2ccc(Cl)c(Cl)c2)CC1	190
COc1ccc(CNC2CCN(C)CC2)cc1-c1ccc(S(=O)(=O)NCc2ccccc2)c(C)c1	990
Cc1cc(NN=Cc2ccccc2Cl)c2cccc(C)c2n1	710
N#Cc1ccc(CN2CCC(Oc3ccc(NC(=O)c4ccccc4)cc3Cl)CC2)cc1	1260
CC[C@H](C)[C@H](NC(=O)[C@H](CC1CCCCC1)[C@H](CC)N(O)C=O)C(=O)Nc1ccccn1	180
COc1ccc(NC(=O)Nc2ccc(C)c(-c3ccc(C(=O)Nc4ccncc4)cc3)c2)cc1	570
CCCCC(NCC)c1ccc(OCCOc2ccc(C(CCCC)NCC)cc2)cc1 (stereo unspecified)	930
O=C(Nc1ccc(Cl)cc1)c1ccc(S(=O)(=O)NCC2CCN(CC3CCCCC3)CC2)cc1	860
CCCCC#Cc1cnc2nc(N)[nH]c(=O)c2n1	650
CC1CN(c2cc(=O)n(Cc3cccc(NC(=O)Nc4ccc(-c5ccccc5)cc4)c3)cn2)CC(C)N1 (stereo unspecified)	400
Cc1cc(=O)c(-c2ccc(OCc3ccc(Cl)cc3)cc2)c(C)[nH]1	730
N#CC(c1ccc(F)cc1)c1ccc2c(C(F)(F)F)cc(C(F)(F)F)nc2n1 (stereo unspecified)	730
CCCc1cnc2nc(N)nc(N)c2c1C	1120
O=C(Nc1ccc(O)c(-c2nc3ccccc3[nH]2)c1)c1ccc([N+](=O)[O-])cc1	320
O=C(CC1NC(=O)c2ccccc21)Nc1ccc(-c2ccc(-c3nc4ccc(C(F)(F)F)cc4[nH]3)cc2)cc1 (stereo unspecified)	470
Cc1ccc(S(=O)(=O)N(CCCN2CCN(C)CC2)Cc2csc(-c3ccc(CNCc4ccccc4)cc3)n2)cc1	840

SMILES	IC50 [nM]
Cc1cccc(CC(N)=NCCCCCCN=C(N)Cc2cccc(C)c2)c1	170
c1ccc(CN2CCC(NCc3ccccc3-c3cccc(CNC4CCCC4)c3)CC2)cc1	720
COCCCNC(=S)NN=C(C)c1ccccn1	300
COc1ccc2c(=O)c(I)c(C)[nH]c2c1	440
CCCN(CCC)S(=O)(=O)c1ccc(C(=O)N2CCC(C(=O)OCC)CC2)cc1	800
O=C(Nc1ccc(Cl)cc1C(=O)Nc1cccc(F)c1)c1ccc([N+](=O)[O-])cc1	370
Nc1c(Cl)cc(C(O)CNCCCCCCOCCc2ccc(O)cc2)cc1Cl (stereo unspecified)	730
CC(Cc1ccc([N+](=O)[O-])cc1)NCC(O)c1cccc(C(F)(F)F)c1 (stereo unspecified)	900
c1ccc(Nc2nc(-c3ccccn3)cs2)nc1	1150
Cc1cc(NC(=O)N=C(N)N)ccc1Cl	700
Cc1ccc2c(OCCN3CCC(Cc4cc5c(cc4F)OCC(=O)N5)CC3)cc(F)cc2n1	630
NC(=O)c1ccccc1Nc1nc(Nc2ccc(N3CCOCC3)cc2)ncc1[N+](=O)[O-]	880
Cc1ccc(Nc2nnc(SCC(=O)Nc3ccc(CN4CCCC4)cc3)s2)cc1	1210
c1ccc(-c2cc3cccc(-c4nc5ccncc5[nH]4)c3o2)cc1	110
COc1ccc2c(NN=CC=Cc3ccccc3)cc(C)nc2c1	840
OC(CN1CCN(c2cccc(Cl)c2)CC1)C(c1ccccc1)c1ccccc1 (stereo unspecified)	1150
COC(=O)c1ccc2c(-c3nc4ccc(OC)cc4[nH]3)c[nH]c2c1	880
CCN1CCN(CCNc2c3ccccc3nc3ccccc23)CC1	1020
CN(C)S(=O)(=O)c1cc(-c2ccc3nccc(-c4cccc(S(N)(=O)=O)c4)c3c2)cnc1N	250
CN(C)c1ccc(-c2csc(C(=O)NCC3CCN(Cc4ccc(C(C)(C)C)cc4)C3)c2)cc1 (stereo unspecified)	990
Cc1nn(-c2ccccc2)c2sc(C(=O)N(CCCN(C)C)c3nc(-c4ccccc4)cs3)cc12	980
COc1ccc2nccc([C@@H](O)CN3CCC(NCc4ccc5c(n4)NCCC5)CC3)c2c1	740
Fc1ccc2nc(-c3ccc(-c4ccc(CN5CCN(c6cnccn6)CC5)cc4)s3)[nH]c2c1	620
COc1ccc(-c2ccc(NC(=O)c3ccc(Cl)cc3)cc2)cc1CN(C)CCN(C)C	670
CCc1c(C)nc(-n2nc(C)cc2NC(=O)c2ccc(OC)cc2OC)[nH]c1=O	830
CCOc1ccc(-c2nonc2NC(=O)c2ccccc2OC)cc1OCC	240

SMILES	IC50 [nM]
COc1ccc2nc3cc(Cl)ccc3c(NCCNCC(O)CO)c2n1 (stereo unspecified)	150
COc1ccc(Cl)cc1S(=O)(=O)Nc1cccc(CCN2CCC(N3CCCCC3)CC2)c1	700
COc1cc(CNCCCCCCNCc2cc(OC)c3ccccc3c2OC)c(OC)c2ccccc12	700
COc1cc2nc(N3CCN(c4nc(N)c5cc(OC)c(OC)cc5n4)CC3)nc(N)c2cc1OC	150
COc1ccc(CCCCN2C(=O)C(c3ccccc3)(c3ccccc3)N=C2N)cc1	860
CCCC(C(=O)OCCN(CC)CC)(c1ccc(Cl)cc1)c1ccc(Cl)cc1	880
COc1cc(NCCCCNc2ccc(Cl)c(Cl)c2)nc2ccccc12	530
COc1ccc(CN2CCN(CCOC(c3ccccc3)c3ccccc3)CC2)c(O)c1	1190
CC(=O)Nc1ccc(OCCN(CC(C)C)c2ccc(C(F)(F)F)c(C#N)c2)c(Cl)c1	310
O=C(Nc1ccc2c(c1)CCCN2S(=O)(=O)c1cccs1)c1cc([N+](=O)[O-])ccc1Cl	840
O=C(/C=C/c1ccc(Cl)c(Cl)c1)NCCCCCN1CCC(NC(=O)c2cccc(Cl)c2)CC1	690
Cc1cccc(Cn2ccc3c4c(N)nc(N)nc4ccc32)c1	10
COc1ccc(Nc2ncc(OC)c(Nc3ccccc3C(N)=O)n2)cc1N1CCN(C)CC1	740
Fc1ccc(Nc2ccnc3cc(-c4cccc(CN5CCCCC5)c4)ccc23)c(Cl)c1	30
CN(CCCc1c[nH]c2ccccc12)CCC1CCC(NC(=O)/C=C/c2ccc(Cl)c(Cl)c2)CC1 (stereo unspecified)	650
COc1ccc2nc(-c3ccccc3)cc(NCCN(C)C)c2c1	730
Cc1noc(C)c1C(=O)N1CCc2cc3nccc(N4CCN5CCC[C@H]5C4)c3cc21	870
FC(F)(F)c1cccc(Nc2nc(-c3ccccc3)nc3ncccc23)c1	800
O=[N+]([O-])c1cccc(CNCC2CCN(CCc3ccccc3)CC2)c1	780
O=C(NC1CCC1)C1CCN(C(c2ccccc2)c2cc(F)cc(F)c2)CC1 (stereo unspecified)	800
c1ccc2[nH]c(-c3ccc(-c4ccc(CN5CCCCC5)cc4)cc3)nc2c1	750
CCCN(CCC)C(=O)c1cc(C(=O)N[C@@H](Cc2ccccc2)[C@H](O)CNC(C)(C)c2cccc(C(F)(F)F)c2)cc(N2CCCCS2(=O)=O)c1	40
O=C(NCCCN(Cc1ccc(F)cc1)c1ccccn1)C(c1cc2ccccc2o1)N1CCN(C(c2ccccc2)c2ccccc2)CC1 (stereo unspecified)	840
